Source: patent publication US20170105997A1, “METHODS OF TREATING CANCER” (Northwestern University, priority 2014, published 2017)

Columns and labels:
Type in all cases: cell-based
RPMI-8226 = assay: gIC50 in multiple myeloma cell line RPMI-8226 treated with EZH2 inhibitors; conditions: Homo sapiens, MMSET none, UTX wt
Method: (§1) All cells were grown in RPMI 1640 (Invitrogen) supplemented with 10% heat-inactivated FBS and 1% penicillin/streptomycin.
(§2) Cells were treated with the EZH2 inhibitors below. GSK2816126A is also known as GSK126 and is a compound of Formula I, specifically Compound B as described herein. Data in Table I was used to generate the data in FIG. 14. EZH2 inhibitors of Formula II, III, and IV and Compound C are used to generate gIC50 values and similar results as with GSK126 are found. Additional cell lines are tested with EZH2 inhibitors of Formula I, II, III, IV, Compound B, and Compound C and an improved cell killing, e.g. as measured by gIC50, is seen in cell lines having an increased level of MMSET expression, or a decreased level of UTX enzyme, or both, as compared to a control, e.g. a tissue typed control sample not characterized as having cancerous attributes.

LP1 = assay: gIC50 in multiple myeloma cell line LP1 treated with EZH2 inhibitors; conditions: Homo sapiens, LP-1, t(4;14)+, UTX Hom 1621C>T (Q541X)
Method: as §1, §2

KMS-11 = assay: gIC50 in multiple myeloma cell line KMS-11 treated with EZH2 inhibitors; conditions: Homo sapiens, t(4;14)+
Method: as §1, §2

OpM2 = assay: gIC50 in multiple myeloma cell line OpM2 treated with EZH2 inhibitors; conditions: Homo sapiens, OPM-2, t(4;14)+, UTX Het c.197G>A p.G66D
Method: as §1, §2

KMS-12-BM = assay: gIC50 in multiple myeloma cell line KMS-12-BM treated with EZH2 inhibitors; conditions: Homo sapiens, MMSET none, UTX Hom del exons 5-12
Method: as §1, §2

- IC50 (RPMI-8226): 1680 nM
- IC50 (LP1): 2380 nM
- IC50 (KMS-11): 3020 nM
- IC50 (OpM2): 861 nM
- IC50 (KMS-12-BM): 2570 nM
Structure (SMILES): CC[C@H](C)n1cc(C)c2c(C(=O)NCc3c(C)cc(C)[nH]c3=O)cc(-c3ccc(N4CCNCC4)nc3)cc21 [GSK2816126A]
